System: increased blood flow through the facial skin caused by endogenous CGRP
Experiment: Facial skin blood flow increase after trigeminal ganglion stimulation in marmosets (laser Doppler)
Type: in vivo
Conditions: anaesthetised marmosets; i.v. 5 min before the 2nd and 3rd stimulation periods; trigeminal ganglion stimulation 10Hz, 2 mA, 2 msec, for 30 sec
Source text: The efficacy of the following test substances was characterised by determining the dose administered i.v. which reduces by 50% the increased blood flow through the skin of the face which has been brought about by endogenous CGRP: • (A) =1-[N^2-[3,5-dibromo-N-[[4-(3,4-dihydro-2(1H)-oxoquinazolin-3-yl)-1-piperidinyl]carbonyl]-D-tyrosyl]-L-lysyl]-4-(4-pyridinyl)-piperazine, • (B) =1-[4-amino-3,5-dibromo-N-[[4-(2,3,4,5-tetrahydro-2(1 H)-oxo-1,3-benzodiazepin-3-yl)-1-piperidinyl]carbonyl]-D-phenylalanyl]-4-(1-piperidinyl)-piperidine, • (AC) =(R,S)-1-[4-[4-(3,4-dihydro-2(1H)-oxoquinazolin-3-yl)-1-piperidinyl]-2-[(3,5-dibromo-4-methylphenyl)methyl]-1,4-dioxobutyl]-4-(4-methyl-1-piperazinyl)-piperidine, • (AM) =1-[4-amino-3,5-dibromo-N-[[4-(3,4-dihydro-2(1H)-oxoquinazolin-3-yl)-1-piperidinyl]carbonyl]-D-phenylalanyl]-4-(1-piperidinyl)-piperidine, • (DA =sumatriptan and • (DB) =zolmitriptan. Description of Method:
Marmosets of both sexes (300-400 g) are anaesthetised with pentobarbital (initially with 30 mg/kg, i.p., followed by infusion of 6 mg/kg/h, […].). The body temperature is maintained at 37° C. using a heating plate. Pancurmium is administered as a muscle relaxant (initially 1 mg/kg, 0.5 mg after each hour thereafter). The animal's head is secured in a stereotactical apparatus. After the skin on the head has been opened using a lengthwise incision, a small hole is drilled in the skull and a bipolar electrode (Rhodes SNES 100) is lowered into the trigeminal ganglion.
The petrous bone serves as a guide for placing the electrode (CCX-Digital X-ray apparatus). The position of the electrode in the ganglion is monitored at the end of each experiment. The stimulation parameters are: • 10Hz, 2 mA, 2 msec, for 30 sec.
The blood flow in the micro-vessels of the facial skin is determined by laser Doppler flow measurement using a PeriFlux Laser Doppler System.
The animals are exposed to 2 to 3 stimulation periods at intervals of 30 min in each case. The first stimulation serves as a reference value for the other stimulations. The test substances are administered i.v. 5 min before the 2nd and 3rd stimulation periods.

SMILES | 50% dose = i.v. dose which reduces by 50% the increased blood flow through the facial skin caused by endogenous CGRP
Cc1c(Br)cc(C[C@H](CC(=O)N2CCC(N3Cc4ccccc4NC3=O)CC2)C(=O)N2CCC(N3CCN(C)CC3)CC2)cc1Br (racemic) [Substance AC, (R,S)-1-[4-[4-(3,4-dihydro-2(1H)-oxoquinazolin-3-yl)-1-piperidinyl]-2-[(3,5-dibromo-4-methylphenyl)methyl]-1,4-dioxobutyl]-4-(4-methyl-1-piperazinyl)-piperidine] | 0.018 mg/kg
NCCCC[C@H](NC(=O)[C@@H](Cc1cc(Br)c(O)c(Br)c1)NC(=O)N1CCC(N2Cc3ccccc3NC2=O)CC1)C(=O)N1CCN(c2ccncc2)CC1 [Substance A, 1-[N^2-[3,5-dibromo-N-[[4-(3,4-dihydro-2(1H)-oxoquinazolin-3-yl)-1-piperidinyl]carbonyl]-D-tyrosyl]-L-lysyl]-4-(4-pyridinyl)-piperazine] | 0.003 mg/kg
Nc1c(Br)cc(C[C@@H](NC(=O)N2CCC(N3Cc4ccccc4NC3=O)CC2)C(=O)N2CCC(N3CCCCC3)CC2)cc1Br [Substance AM, 1-[4-amino-3,5-dibromo-N-[[4-(3,4-dihydro-2(1H)-oxoquinazolin-3-yl)-1-piperidinyl]carbonyl]-D-phenylalanyl]-4-(1-piperidinyl)-piperidine] | 0.046 mg/kg
Nc1c(Br)cc(C[C@@H](NC(=O)N2CCC(N3CCc4ccccc4NC3=O)CC2)C(=O)N2CCC(N3CCCCC3)CC2)cc1Br [Substance B, 1-[4-amino-3,5-dibromo-N-[[4-(2,3,4,5-tetrahydro-2(1H)-oxo-1,3-benzodiazepin-3-yl)-1-piperidinyl]carbonyl]-D-phenylalanyl]-4-(1-piperidinyl)-piperidine] | 0.042 mg/kg
CNS(=O)(=O)Cc1ccc2[nH]cc(CCN(C)C)c2c1 [Substance DA, sumatriptan, reference compound] | 0.280 mg/kg
CN(C)CCc1c[nH]c2ccc(C[C@H]3COC(=O)N3)cc12 [Substance DB, zolmitriptan, reference compound] | 0.035 mg/kg

From patent publication US20050032783A1, “Use of CGRP antagonists in treatment and prevention of hot flushes in prostate cancer patients” (Boehringer Ingelheim International GmbH, priority 2003, published 2005)
